Results from PMC5386672, “Structure-guided design of purine-based probes for selective Nek2 inhibition” (Oncotarget, 2016).

Key:
[1] = molecular target: T1, Nek2 (Homo sapiens, UniProt P51955); assay: Nek2 Caliper kinase inhibition assay; format: biochemical; settings: 30 μM ATP; for IC50: Caliper assay; for inhibition at 50 µM: @ 50 μM compound
T1 construct: purchased Invitrogen
T1 sequence (P51955 1-445): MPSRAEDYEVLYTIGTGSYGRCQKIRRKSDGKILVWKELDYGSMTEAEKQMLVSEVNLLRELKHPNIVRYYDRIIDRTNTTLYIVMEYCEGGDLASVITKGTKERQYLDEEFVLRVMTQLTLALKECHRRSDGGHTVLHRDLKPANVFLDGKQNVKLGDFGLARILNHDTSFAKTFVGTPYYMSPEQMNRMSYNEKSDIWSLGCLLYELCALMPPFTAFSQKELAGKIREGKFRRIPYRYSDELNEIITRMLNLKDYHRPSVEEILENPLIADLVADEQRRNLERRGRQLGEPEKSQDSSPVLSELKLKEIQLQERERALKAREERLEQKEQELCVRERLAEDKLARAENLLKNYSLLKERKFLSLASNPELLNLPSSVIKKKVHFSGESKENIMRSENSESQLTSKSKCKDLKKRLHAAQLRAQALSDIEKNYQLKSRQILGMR

[2] = molecular target: CDK2 (Homo sapiens, UniProt P24941); assay: CDK2 kinase inhibition assay; format: biochemical; settings: for IC50: 12.5 μM ATP; for selectivity for CDK2 over Nek2: from IC50 values

SMILES | IC50 [1] [µM] | IC50 [2] [µM] | melting point | inhibition at 50 µM [1] [%] | selectivity for CDK2 over Nek2 [2] [fold]
CCC(C)Oc1nc(Nc2cccc(CC(=O)NCCCN(C)C)c2)nc2[nH]cnc12 (racemic) [Compound 60, (±)-2-[3-(6-sec-Butoxy-9H-purin-2-ylamino)phenyl]-N-(3-dimethylaminopropyl)acetamide] | 4.9 | 0.41 | 97 to 98 °C |  | 10
CCOc1nc(Nc2cccc(CC(=O)NCCCN(C)C)c2)nc2[nH]cnc12 [Compound 7] | 0.89 | 5.6 |  |  | 
CNC(=O)c1cccc(Nc2nc(OCC3CCCCC3)c3nc[nH]c3n2)c1 [Compound 10, 3-(6-Cyclohexylmethoxy-9H-purin-2-ylamino)-N-methylbenzamide] | 15 | 0.83 | 252 to 254 °C |  | 
CN(C)C(=S)c1cccc(Nc2nc(OCC3CCCCC3)c3nc[nH]c3n2)c1 [Compound 12, 3-(6-Cyclohexylmethoxy-9H-purin-2-ylamino)-N,N-dimethylthiobenzamide] | 5.2 | 5.7 | 231 to 232 °C (dec.) |  | 
CN(C)S(=O)(=O)c1cccc(Nc2nc(OCC3CCCCC3)c3nc[nH]c3n2)c1 [Compound 14, 3-(6-Cyclohexylmethoxy-9H-purin-2-ylamino)-N,N-dimethylbenzenesulfonamide] |  | 3.5 | 143 to 145 °C | 40 | 
CNC(=O)Cc1cccc(Nc2nc(OCC3CCCCC3)c3nc[nH]c3n2)c1 [Compound 15] | 1.3 | 0.32 | 176 to 177 °C |  | 
O=C(NCCN1CCOCC1)Nc1ccc(Nc2nc(OCC3CCCCC3)c3nc[nH]c3n2)cc1 [Compound 16, 1-(4-(6-(Cyclohexylmethoxy)-9H-purin-2-ylamino)phenyl)-3-(2-morpholinoethyl)urea] | 2.2 | 1.1 | 161 to 163 °C |  | 
O=C(NCCN1CCCCC1)Nc1ccc(Nc2nc(OCC3CCCCC3)c3nc[nH]c3n2)cc1 [Compound 17, 1-(4-(6-(Cyclohexylmethoxy)-9H-purin-2-ylamino)phenyl)-3-(2-(piperidin-1-yl)ethyl)urea] | 1.1 | 0.86 |  |  | 
CN(C)CCCNC(=O)Nc1ccc(Nc2nc(OCC3CCCCC3)c3nc[nH]c3n2)cc1 [Compound 18, 1-(4-(6-(Cyclohexylmethoxy)-9H-purin-2-ylamino)phenyl)-3-(3-(dimethylamino)propyl)urea] | 1.2 | 0.72 | 110 to 112 °C |  | 
CC(=O)Nc1cccc(Nc2nc(OCC3CCCCC3)c3nc[nH]c3n2)c1 [Compound 27, N-(3-(6-(Cyclohexylmethoxy)-9H-purin-2-ylamino)phenyl)acetamide] | 8.3 | 0.88 |  |  | 
O=C(Nc1ccc(Nc2nc(OCC3CCCCC3)c3nc[nH]c3n2)cc1)c1ccccc1 [Compound 29, N-(4-(6-(Cyclohexylmethoxy)-9H-purin-2-ylamino)phenyl)benzamide] |  | 2.9 |  | 36 | 
O=C(Nc1ccc(Nc2nc(OCC3CCCCC3)c3nc[nH]c3n2)cc1)c1ccncc1 [Compound 30, N-[4-(6-Cyclohexylmethoxy-9H-purin-2-ylamino)phenyl]isonicotinamide] |  | 2.2 | 248 to 250 °C (dec.) | 51 | 
O=C(c1cccc(Nc2nc(OCC3CCCCC3)c3nc[nH]c3n2)c1)N1CCCCC1 [Compound 32, [3-(6-Cyclohexylmethoxy-9H-purin-2-ylamino)phenyl]piperidin-1-ylmethanone] |  | 18 | 133 to 135 °C | 57 | 
CN(C)CCCCNC(=O)c1cccc(Nc2nc(OCC3CCCCC3)c3nc[nH]c3n2)c1 [Compound 33, 3-(6-Cyclohexylmethoxy-9H-purin-2-ylamino)-N-(4-dimethylaminobutyl)benzamide] | 3.8 | 0.73 | 125 to 127 °C |  | 
CC(C)CCNC(=O)Cc1cccc(Nc2nc(OCC3CCCCC3)c3nc[nH]c3n2)c1 [Compound 44, 2-[3-(6-Cyclohexylmethoxy-9H-purin-2-ylamino)phenyl]-N-(3-methylbutyl)acetamide] |  | 3.7 |  | 29 | 
CN(C)S(=O)(=O)Cc1cccc(Nc2nc(OCC3CCCCC3)c3nc[nH]c3n2)c1 [Compound 48, [3-(6-Cyclohexylmethoxy-9H-purin-2-ylamino)-phenyl]-N,N-dimethylmethanesulfonamide] | 0.83 | 0.77 |  |  | 
O=S(=O)(Cc1cccc(Nc2nc(OCC3CCCCC3)c3nc[nH]c3n2)c1)N1CCCCC1 [Compound 49, 1-(3-(6-Cyclohexylmethoxy-9H-purin-2-ylamino)phenylmethanesulfonyl)piperidine] |  | 1.6 |  | 53 | 
CCOc1nc(Nc2cccc(CC(=O)NCCCN(C)C)c2)nc2[nH]cnc12 [Compound 59, N-(3-Dimethylaminopropyl)-2-[3-(6-ethoxy-9H-purin-2-ylamino)phenyl]acetamide] |  |  | 178 to 179 °C |  | 

More lines, main results first:

IC50 [1] [µM] | IC50 [2] [µM] | melting point | inhibition at 50 µM [1] [%] | SMILES | selectivity for CDK2 over Nek2 [2] [fold]
22 |  |  |  | c1ccc(Nc2nc(OCC3CCCCC3)c3nc[nH]c3n2)cc1 [2-aminophenyl-6-(cyclohexylmethoxy)-9H-purine] | 
12 |  |  |  | NS(=O)(=O)c1ccc(Nc2nc(OCC3CCCCC3)c3nc[nH]c3n2)cc1 [Compound 6] | 
 | 0.33 | 148 to 149 °C (dec.) | 46 | NC(=S)c1cccc(Nc2nc(OCC3CCCCC3)c3nc[nH]c3n2)c1 [Compound 13, 3-(6-Cyclohexylmethoxy-9H-purin-2-ylamino)thiobenzamide] | 
> 50 | 1.9 | 180 to 181 °C |  | O=[N+]([O-])c1ccc(Nc2nc(OCC3CCCCC3)c3nc[nH]c3n2)cc1 [Compound 19, 6-(Cyclohexylmethoxy)-N-(4-nitrophenyl)-9H-purin-2-amine] | 
> 50 | 0.89 | 217 to 218 °C |  | O=[N+]([O-])c1cccc(Nc2nc(OCC3CCCCC3)c3nc[nH]c3n2)c1 [Compound 20, 6-(Cyclohexylmethoxy)-N-(3-nitrophenyl)-9H-purin-2-amine] | 
6.3 | 0.22 | 228 to 230 °C |  | Nc1ccc(Nc2nc(OCC3CCCCC3)c3[nH]cnc3n2)cc1 [Compound 21, 2-(4-Aminophenyl)amino-6-cyclohexylmethoxy-purine] | 
5.9 | 0.7 | 117 to 118 °C (dec.) |  | Nc1cccc(Nc2nc(OCC3CCCCC3)c3[nH]cnc3n2)c1 [Compound 22, 2-(3-Aminophenyl)amino-6-cyclohexylmethoxy-purine] | 
4.3 | 0.99 | 182 to 184 °C (dec.) |  | O=C(O)c1cccc(Nc2nc(OCC3CCCCC3)c3nc[nH]c3n2)c1 [Compound 23, 3-(6-Cyclohexylmethoxy-9H-purin-2-ylamino)benzoic acid] | 
24 | 9.7 |  |  | CC(C)(C)C(=O)Nc1ccc(Nc2nc(OCC3CCCCC3)c3nc[nH]c3n2)cc1 [Compound 28, N-(4-(6-(Cyclohexylmethoxy)-9H-purin-2-ylamino)phenyl)pivalamide] | 
3.6 | 0.38 | 193 to 194 °C |  | NC(=O)Nc1cccc(Nc2nc(OCC3CCCCC3)c3nc[nH]c3n2)c1 [Compound 31, 1-(3-(6-(Cyclohexylmethoxy)-9H-purin-2-ylamino)phenyl) urea] | 10
